Data taken from US20250352520A1, “USE OF DEXPRAMIPEXOLE FOR THE TREATMENT OF EOSINOPHILIC COPD” (Areteia Therapeutics, Inc., priority 2024, published 2025).
Where two headings read alike, the source gives them in different places.

Experiments:
[1] = across the dose groups at various time-points
blood eosinophils = tested on: blood eosinophils
Experimental: This was a Phase II, open-label, multicenter study in approximately 30 participants aged≥40 to ≤80 years of age with a diagnosis of COPD and a blood eosinophil count of ≥0.30×10^9/L at screening. Some patients with blood eosinophil counts of 0.25-0.299×10^9/L at screening also were included. Participants were treated with 150 mg dexpramipexole BID. […] Informed consent was obtained from participants before the initiation of any study-specific procedures. This study was conducted at approximately 30 sites in the US.
There were three phases to the study: • Screening Phase (Screening Visit through Baseline) Participants underwent screening to assess whether they satisfy the eligibility criteria. […] After the collection of all Baseline assessments, participants began investigational treatment (dexpramipexole 150 mg), BID for 16 weeks. The Week 16 Visit was the Primary Outcome Visit for the study. • Follow-up Phase (Conclusion of Week 16 assessments through Week 20) During this phase, participants had one final phone visit to collect final safety assessments following cessation of investigational product.
The primary endpoint of this study was geometric mean change in the blood AEC from Baseline to Week 16.
Blood eosinophil counts were obtained at every onsite study visit. Samples were collected between 6 AM and 12 noon to minimize diurnal variation.

[2] = tested on: eosinophils in blood and airways; details: 150 mg BID dexpramipexole dihydrochloride; up to approximately
[3] = Subject 10001-001-0001 (<50% AEC reduction at Week 16), Week 4
[4] = Subject 10001-001-0001 (<50% AEC reduction at Week 16), Week 8
[5] = Subject 10001-001-0001 (<50% AEC reduction at Week 16), Week 12
[6] = Subject 10001-001-0001 (<50% AEC reduction at Week 16), Week 16
[7] = Subject 10001-001-0002 (>=50% AEC reduction at Week 16), Week 4
[8] = Subject 10001-008-0002 (<50% AEC reduction at Week 16), Week 4
[9] = Subject 10001-008-0002 (<50% AEC reduction at Week 16), Week 8
[10] = Subject 10001-008-0002 (<50% AEC reduction at Week 16), Week 12
[11] = Subject 10001-008-0002 (<50% AEC reduction at Week 16), Week 16
[12] = Subject 10001-010-0005 (<50% AEC reduction at Week 16), Week 4
[13] = Subject 10001-010-0005 (<50% AEC reduction at Week 16), Week 8
[14] = Subject 10001-010-0005 (<50% AEC reduction at Week 16), Week 12
[15] = Subject 10001-010-0005 (<50% AEC reduction at Week 16), Week 16
[16] = Subject 10001-022-0001 (>=50% AEC reduction at Week 16), Week 4
[17] = Subject 10001-022-0001 (>=50% AEC reduction at Week 16), Week 8
[18] = Subject 10001-022-0001 (>=50% AEC reduction at Week 16), Week 12
[19] = Subject 10001-022-0001 (>=50% AEC reduction at Week 16), Week 16
[20] = Subject 10001-022-0006 (<50% AEC reduction at Week 16), Week 4
[21] = Subject 10001-022-0006 (<50% AEC reduction at Week 16), Week 12
[22] = Subject 10001-022-0006 (<50% AEC reduction at Week 16), Week 16
[23] = Subject 10001-024-0002 (>=50% AEC reduction at Week 16), Week 4
[24] = Subject 10001-024-0002 (>=50% AEC reduction at Week 16), Week 8
[25] = Subject 10001-024-0002 (>=50% AEC reduction at Week 16), Week 12
[26] = Subject 10001-024-0002 (>=50% AEC reduction at Week 16), Week 16

CCCN[C@@H]1CCc2nc(N)sc2C1 [Dexpramipexole, (6R)-2-amino-4,5,6,7-tetrahydro-6-(propylamino)benzothiazole]
placebo-corrected change from baseline in pre-BD FEV1 [1]: clinically meaningful | AEC Ratio to Baseline (blood eosinophils; [3]): 0.70 | AEC Result (blood eosinophils; [3]): 290 cells/uL | AEC Ratio to Baseline (blood eosinophils; [4]): 0.56 | AEC Result (blood eosinophils; [4]): 235 cells/uL | AEC Ratio to Baseline (blood eosinophils; [5]): 0.54 | AEC Result (blood eosinophils; [5]): 224 cells/uL | AEC Ratio to Baseline (blood eosinophils; [6]): 0.62 | AEC Result (blood eosinophils; [6]): 260 cells/uL | AEC Ratio to Baseline (blood eosinophils; [7]): 0.80 | AEC Result (blood eosinophils; [7]): 298 cells/uL | AEC Result (blood eosinophils; Subject 10001-001-0002 (>=50% AEC reduction at Week 16), Week 8): 0 cells/uL | AEC Ratio to Baseline (blood eosinophils; Subject 10001-001-0002 (>=50% AEC reduction at Week 16), Week 8, zero value replaced with 5 cells): 0.01(a) | AEC Result (blood eosinophils; Subject 10001-001-0002 (>=50% AEC reduction at Week 16), Week 12): 0 cells/uL | AEC Ratio to Baseline (blood eosinophils; Subject 10001-001-0002 (>=50% AEC reduction at Week 16), Week 12, zero value replaced with 5 cells): 0.01(a) | AEC Result (blood eosinophils; Subject 10001-001-0002 (>=50% AEC reduction at Week 16), Week 16): 0 cells/uL | AEC Ratio to Baseline (blood eosinophils; Subject 10001-001-0002 (>=50% AEC reduction at Week 16), Week 16, zero value replaced with 5 cells): 0.01(a) | AEC Ratio to Baseline (blood eosinophils; [8]): 0.70 | AEC Result (blood eosinophils; [8]): 218 cells/uL | AEC Ratio to Baseline (blood eosinophils; [9]): 1.08 | AEC Result (blood eosinophils; [9]): 336 cells/uL | AEC Ratio to Baseline (blood eosinophils; [10]): 1.90 | AEC Result (blood eosinophils; [10]): 589 cells/uL | AEC Ratio to Baseline (blood eosinophils; [11]): 1.24 | AEC Result (blood eosinophils; [11]): 384 cells/uL | AEC Ratio to Baseline (blood eosinophils; [12]): 0.94 | AEC Result (blood eosinophils; [12]): 388 cells/uL | AEC Ratio to Baseline (blood eosinophils; [13]): 0.96 | AEC Result (blood eosinophils; [13]): 396 cells/uL | AEC Ratio to Baseline (blood eosinophils; [14]): 0.56 | AEC Result (blood eosinophils; [14]): 231 cells/uL | AEC Ratio to Baseline (blood eosinophils; [15]): 0.64 | AEC Result (blood eosinophils; [15]): 266 cells/uL | AEC Ratio to Baseline (blood eosinophils; [16]): 1.51 | AEC Result (blood eosinophils; [16]): 724 cells/uL | AEC Ratio to Baseline (blood eosinophils; [17]): 0.19 | AEC Result (blood eosinophils; [17]): 90 cells/uL | AEC Ratio to Baseline (blood eosinophils; [18]): 0.01 | AEC Result (blood eosinophils; [18]): 6 cells/uL | AEC Ratio to Baseline (blood eosinophils; [19]): 0.01 | AEC Result (blood eosinophils; [19]): 6 cells/uL | AEC Ratio to Baseline (blood eosinophils; [20]): 1.23 | AEC Result (blood eosinophils; [20]): 676 cells/uL | AEC Ratio to Baseline (blood eosinophils; [21]): 1.07 | AEC Result (blood eosinophils; [21]): 589 cells/uL | AEC Ratio to Baseline (blood eosinophils; [22]): 0.62 | AEC Result (blood eosinophils; [22]): 342 cells/uL | AEC Ratio to Baseline (blood eosinophils; [23]): 0.77 | AEC Result (blood eosinophils; [23]): 192 cells/uL | AEC Ratio to Baseline (blood eosinophils; [24]): 0.77 | AEC Result (blood eosinophils; [24]): 192 cells/uL | AEC Ratio to Baseline (blood eosinophils; [25]): 0.04 | AEC Result (blood eosinophils; [25]): 9 cells/uL | AEC Ratio to Baseline (blood eosinophils; [26]): 0.39 | AEC Result (blood eosinophils; [26]): 98 cells/uL | AEC Observed, Geometric Mean ± GSE (blood eosinophils; Week 4): 353.3 ± 1.22 cells/uL | AEC Observed, Max (blood eosinophils; Week 4): 724 cells/uL | AEC Observed, Median (blood eosinophils; Week 4): 298.0 cells/uL | AEC Observed, Min (blood eosinophils; Week 4): 192 cells/uL | AEC Observed, Q1 (blood eosinophils; Week 4): 218 cells/uL | AEC Observed, Q3 (blood eosinophils; Week 4): 676 cells/uL | AEC Ratio to baseline, Geometric Mean ± GSE (blood eosinophils; Week 4): 0.911 ± 1.1189 | AEC Ratio to baseline, Max (blood eosinophils; Week 4): 1.51 | AEC Ratio to baseline, Median (blood eosinophils; Week 4): 0.799 | AEC Ratio to baseline, Min (blood eosinophils; Week 4): 0.70 | AEC Ratio to baseline, Q1 (blood eosinophils; Week 4): 0.70 | AEC Ratio to baseline, Q3 (blood eosinophils; Week 4): 1.23 | AEC Observed, Geometric Mean ± GSE (blood eosinophils; Week 8): 118.0 ± 1.95 cells/uL | AEC Observed, Max (blood eosinophils; Week 8): 396 cells/uL | AEC Observed, Median (blood eosinophils; Week 8): 212.4 cells/uL | AEC Observed, Min (blood eosinophils; Week 8): 5 cells/uL | AEC Observed, Q1 (blood eosinophils; Week 8): 90 cells/uL | AEC Observed, Q3 (blood eosinophils; Week 8): 336 cells/uL | AEC Ratio to baseline, Geometric Mean ± GSE (blood eosinophils; Week 8): 0.323 ± 1.9860 | AEC Ratio to baseline, Max (blood eosinophils; Week 8): 1.08 | AEC Ratio to baseline, Median (blood eosinophils; Week 8): 0.658 | AEC Ratio to baseline, Min (blood eosinophils; Week 8): 0.01 | AEC Ratio to baseline, Q1 (blood eosinophils; Week 8): 0.19 | AEC Ratio to baseline, Q3 (blood eosinophils; Week 8): 0.96 | AEC Observed, Geometric Mean ± GSE (blood eosinophils; Week 12): 64.9 ± 2.30 cells/uL | AEC Observed, Max (blood eosinophils; Week 12): 589 cells/uL | AEC Observed, Median (blood eosinophils; Week 12): 224.0 cells/uL | AEC Observed, Min (blood eosinophils; Week 12): 5 cells/uL | AEC Observed, Q1 (blood eosinophils; Week 12): 6 cells/uL | AEC Observed, Q3 (blood eosinophils; Week 12): 589 cells/uL | AEC Ratio to baseline, Geometric Mean ± GSE (blood eosinophils; Week 12): 0.167 ± 2.2497 | AEC Ratio to baseline, Max (blood eosinophils; Week 12): 1.90 | AEC Ratio to baseline, Median (blood eosinophils; Week 12): 0.538 | AEC Ratio to baseline, Min (blood eosinophils; Week 12): 0.01 | AEC Ratio to baseline, Q1 (blood eosinophils; Week 12): 0.01 | AEC Ratio to baseline, Q3 (blood eosinophils; Week 12): 1.07 | AEC Observed, Geometric Mean ± GSE (blood eosinophils; Week 16): 82.8 ± 2.06 cells/uL | AEC Observed, Max (blood eosinophils; Week 16): 384 cells/uL | AEC Observed, Median (blood eosinophils; Week 16): 260.0 cells/uL | AEC Observed, Min (blood eosinophils; Week 16): 5 cells/uL | AEC Observed, Q1 (blood eosinophils; Week 16): 6 cells/uL | AEC Observed, Q3 (blood eosinophils; Week 16): 342 cells/uL | AEC Ratio to baseline, Geometric Mean ± GSE (blood eosinophils; Week 16): 0.213 ± 2.0849 | AEC Ratio to baseline, Max (blood eosinophils; Week 16): 1.24 | AEC Ratio to baseline, Median (blood eosinophils; Week 16): 0.620 | AEC Ratio to baseline, Min (blood eosinophils; Week 16): 0.01 | AEC Ratio to baseline, Q1 (blood eosinophils; Week 16): 0.01 | AEC Ratio to baseline, Q3 (blood eosinophils; Week 16): 0.64 | AEC, average, percent of the baseline value (blood eosinophils; Week 16): 21.3 % of the baseline value | subjects classified as AECR≥0.5 (reduction in AEC of ≥50% from baseline at week 16) (blood eosinophils; Week 16): 3 of the 7 subjects | reductions of eosinophils in blood and airways [2]: ≤ 80%
